Measured values as given in patent publication US20160312240A1, “MODIFIED PYR/PYL RECEPTORS ACTIVATED BY ORTHOGONAL LIGANDS” (The Regents of the University of California, priority 2010, published 2016).

What was measured:
PYL2 K64R,Y124H,M164I = molecular target: T1, PYL2 K64R,Y124H,M164I (Arabidopsis thaliana, UniProt O80992, K64R/M164I/Y124H); test: Yeast two-hybrid assay, strain Y190 pAD-HAB1, X-gal staining; format: cell-based; conditions: FIG. 3A
T1 construct: expressed in transfected cells; host or cells: Saccharomyces cerevisiae Y190 pAD-HAB1
Experimental: (§1) FIGS. 3A-3B. […] FIG. 3A. […] In addition, pocket residue mutations at V114I and/or V67I were introduced. The mutants (listed on left side of panel) were constructed in pBD-PYL2 and transformed into Y190 pAD-HAB1 yeast cells. The transformants were then grown on increasing concentrations of fenhexamid and scored for responsiveness using X-gal staining, performed as described in Park et al., 2009. […] FIG. 3B. In vitro characterization of PYL2 K64R, Y124H, M164I, V67I, V114I mutant. Recombinant wild-type and mutant PYL2 proteins were produced as described previously and used in PP2C assays, as described previously (Park et al., 2009), with the exception that a 2:1 ratio of receptor for phosphatase was used.
(§2) PYR1 is a member of the PYR/PYL receptor protein family, which in Arabidopsis contains 14 members. […] Given the conserved nature of these residues, we speculated that fenhexamid sensitivity could be engineered into other receptor family members by mutating homologous residues in other PYR/PYL receptors. To test this, we introduced the homologous mutations in PYL2 (K64R, corresponding to K59R in PYR1; Y124H, corresponding to Y120H in PYR1; and M164I, corresponding to M158I in PYR1), creating the mutant PYL2^K64R,Y124H,M164I. […]

[1] = tested on: PYL2 K64R,Y124H,M164I,V67I,V114I transgenic plants; test: Water loss from detached aerial rosettes; format: in vivo, Arabidopsis; conditions: 100 μM spray, approximately 16 hours pretreatment, FIG. 6A-C
Experimental: FIGS. 6A-6C. Fenhexamid reduces water loss in transgenic PYL2^K64R, Y124H, M164I, V67I, V114I expressing plants. Shown are three independent water loss experiments (FIGS. 6A-C) conducted on transgenic plants treated with control, 100 μM fenhexamid, or 100 μM ABA containing solutions. Plants were treated as described in the Examples section below and water loss from aerial rosettes was measured after detachment.
Transgenic or control (wild-type) plants were grown under a 16 hr light/8 hr dark cycle for 3 weeks and then treated with either 100 μM (+)-ABA, 100 μM fenhexamid, or control (containing 0.1% Tween-20, 0.1% DMSO). ABA treatments were conducted as a positive control. The plants were sprayed in the evening prior to conducting water loss experiments. The next morning, approximately 16 hours post-treatment, the above-ground rosettes of the experimental samples were collected and transferred to weighing dishes, 8 plants per measured sample, and maintained under ˜90-100 μEinstein/m^2 fluorescent light illumination. Four groups of eight plants were measured per time point at 20 min intervals. The experiments were repeated three times over the course of an eight-week interval. […]

[2] = molecular target: T2, PYL2 K64R,Y124H,M164I,V67I,V114I (Arabidopsis thaliana, UniProt O80992, K64R/M164I/V114I/V67I/Y124H); test: In vitro PP2C inhibition assay, 2:1 receptor to phosphatase; format: biochemical; conditions: FIG. 3B
T2 construct: expressed in transfected cells; host or cells: Saccharomyces cerevisiae Y190 pAD-HAB1
Experimental: as §1, §2

[3] = tested on: wild-type Columbia plants; test: Water loss from detached aerial rosettes; format: in vivo, Arabidopsis; conditions: 100 μM spray, approximately 16 hours pretreatment, FIG. 7
Experimental: FIG. 7. […] Columbia plants were treated with control, 100 μM fenhexamid, or 100 μM ABA containing solutions. Plants were treated as described in the Examples section below and water loss from aerial rosettes was measured after detachment.
Transgenic or control (wild-type) plants were grown under a 16 hr light/8 hr dark cycle for 3 weeks and then treated with either 100 μM (+)-ABA, 100 μM fenhexamid, or control (containing 0.1% Tween-20, 0.1% DMSO). ABA treatments were conducted as a positive control. The plants were sprayed in the evening prior to conducting water loss experiments. The next morning, approximately 16 hours post-treatment, the above-ground rosettes of the experimental samples were collected and transferred to weighing dishes, 8 plants per measured sample, and maintained under ˜90-100 μEinstein/m^2 fluorescent light illumination. Four groups of eight plants were measured per time point at 20 min intervals. The experiments were repeated three times over the course of an eight-week interval. […] It should be noted, however, that ABA can activate all of the PYR/PYL receptors in a plant genome (at least 13 in Arabidopsis), while fenhexamid is selectively activating a single engineered receptor, PYL2^K64R,Y124H,M164I,V67I,V114I. […]

[4] = tested on: PYR1 variants 27C-1, 27C-2, 27C-3, 27C-5, 27C-16, 27C-18, 27C-19, 27C-20, 27C-21 (Table 8); test: MAV99 growth selection, third round of shuffling; format: cell-based, Arabidopsis; conditions: 1.5 μM fenhexamid; media lacking uracil; Table 8 variants
Experimental: A third round of shuffling was conducted by combining DNA for the “27B′” mutants shown in Table 7 and ePCR1 library to create a library of ˜150,000 clones which was then transformed into MAV99 pAD-HAB 1. Constitutive mutants were then depleted by growth on FOA after which fenhexamid sensitive mutants were selected by growth on media lacking uracil but containing 1.5 μM fenhexamid, using the methods described above.

T2 sequence (Q9CAJ0 23-511): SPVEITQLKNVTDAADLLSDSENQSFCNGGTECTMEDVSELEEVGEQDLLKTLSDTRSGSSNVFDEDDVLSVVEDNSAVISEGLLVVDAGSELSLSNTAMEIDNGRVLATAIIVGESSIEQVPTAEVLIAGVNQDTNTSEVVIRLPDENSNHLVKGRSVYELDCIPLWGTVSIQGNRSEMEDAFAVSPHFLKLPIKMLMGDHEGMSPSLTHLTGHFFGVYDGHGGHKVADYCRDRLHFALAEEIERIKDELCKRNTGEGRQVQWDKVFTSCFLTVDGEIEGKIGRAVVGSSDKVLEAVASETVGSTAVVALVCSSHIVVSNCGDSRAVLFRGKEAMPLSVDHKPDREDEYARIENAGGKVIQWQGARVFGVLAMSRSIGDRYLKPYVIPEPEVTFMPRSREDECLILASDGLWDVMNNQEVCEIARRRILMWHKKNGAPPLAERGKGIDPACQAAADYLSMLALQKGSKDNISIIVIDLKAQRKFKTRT
T2 sequence (O80992 whole entry K64R/V67I/V114I/Y124H/M164I): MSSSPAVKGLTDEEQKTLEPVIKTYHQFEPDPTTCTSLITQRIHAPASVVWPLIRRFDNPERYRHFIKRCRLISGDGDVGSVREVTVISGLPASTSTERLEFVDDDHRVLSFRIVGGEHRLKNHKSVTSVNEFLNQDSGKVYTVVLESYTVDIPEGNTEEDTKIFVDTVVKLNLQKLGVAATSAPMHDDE
T1 sequence (O80992 whole entry K64R/Y124H/M164I): as the sequence (O80992 whole entry K64R/V67I/V114I/Y124H/M164I) above, with I67V, I114V counted along it

Compound: CC1(C(=O)Nc2ccc(O)c(Cl)c2Cl)CCCCC1 [fenhexamid]
- fenhexamid responsiveness (yeast two-hybrid) (PYL2 K64R,Y124H,M164I): does not show fenhexamid responsiveness
- Water loss from detached rosettes [1]: sufficient to reduce water loss
- Response to fenhexamid in in vitro PP2C inhibition assays [2]: respond
- Water loss from detached rosettes [3]: does not affect water loss
- Growth in response to fenhexamid (selection) [4]: fenhexamid responsive
